Data as given in the Deep4Chem optical property database.
Several values for one entry are separate records, joined by “and”; a condition that tells them apart may be missing. Equal values may be shown once. One block for each molecule: values may come before it.

Assay: solvent given as SMILES

Compound: CC1=C(C(C)(C)C)C(C)=[N+]2C1=C(C)c1c(C)c(C(C)(C)C)c(C)n1[B-]2(F)F
fluorescence lifetime (in C1CCCCC1): 3.91 ns
fluorescence lifetime (in C1CCOC1): 4.15 ns
fluorescence lifetime (in C1COCCO1): 4.37 ns
fluorescence lifetime (in CC#N): 4.27 ns
fluorescence lifetime (in CC(C)=O): 4.34 ns
fluorescence lifetime (in CC(C)CC(C)(C)C): 4.43 ns
fluorescence lifetime (in CCC(C)C): 4.19 ns
fluorescence lifetime (in CCCC(C)=O): 4.54 ns
fluorescence lifetime (in CCCCCC): 4.35 ns
fluorescence lifetime (in CCCCCCCCO): 4.68 ns
fluorescence lifetime (in CCCCCCO): 4.59 ns
fluorescence lifetime (in CCCCO): 4.33 ns
fluorescence lifetime (in CCCCOC(C)=O): 4.51 ns
fluorescence lifetime (in CCCO): 4.19 ns
fluorescence lifetime (in CCO): 4.09 ns
fluorescence lifetime (in CCOC(C)=O): 4.31 ns
fluorescence lifetime (in CCOCC): 4.27 ns
fluorescence lifetime (in CN(C)C=O): 4.69 ns
fluorescence lifetime (in CNC=O): 4.45 ns
fluorescence lifetime (in CO): 4.21 ns
fluorescence lifetime (in COC(C)=O): 4.44 ns
fluorescence lifetime (in OCC(F)(F)F): 4.64 ns

fluorescence lifetime (in C1CCOC1): 1 ns
Compound: CN(C)c1ccc(C(=Cc2ccc(/C=C/c3ccc(C#N)cc3)cc2)c2ccc(N(C)C)cc2)cc1

Compound: c1ccc(-c2c3c(c(-c4ccccc4)c4cc5ccccc5cc24)Cc2c(c(-c4ccccc4)c4cc5ccccc5cc4c2-c2ccccc2)C3)cc1
fluorescence lifetime (in CC#N): 6.87 ns
fluorescence lifetime (in CCCCCC): 3.8 ns
fluorescence lifetime (in CO): 3.68 ns
fluorescence lifetime (in Cc1ccccc1): 3.24 ns
fluorescence lifetime (in ClCCl): 2.58 ns

fluorescence lifetime (in C1CCOC1): 4.2 ns
Compound: CCC1(CC)c2ccccc2-c2c1c1c(c3c2C(CC)(CC)c2cc(B(c4c(C)cc(C)cc4C)c4c(C)cc(C)cc4C)ccc2-3)C(CC)(CC)c2cc(B(c3c(C)cc(C)cc3C)c3c(C)cc(C)cc3C)ccc2-1

Compound: CC1=CC(c2ccc3cc(N(C)C)ccc3c2)=[O+][B-](F)(F)O1
fluorescence lifetime (in C1CCOC1): 3.56 ns
fluorescence lifetime (in CC#N): 1.02 ns
fluorescence lifetime (in CC(C)=O): 2.72 ns
fluorescence lifetime (in CS(C)=O): 1.47 ns
fluorescence lifetime (in Cc1ccccc1): 4.08 ns
fluorescence lifetime (in ClC(Cl)Cl): 3.46 ns
fluorescence lifetime (in ClCCl): 3.69 ns

fluorescence lifetime (in CCO): 2.07 ns
Compound: Cc1nnc(-c2ccc(-n3c4ccccc4c4ccccc43)cc2)o1

Compound: Cc1ccc2c(c1)c1cc(C)ccc1n2-c1c(-n2c3ccccc3c3ccccc32)c(C#N)c(-n2c3ccccc3c3ccccc32)c(-n2c3ccc(C)cc3c3cc(C)ccc32)c1-n1c2ccccc2c2ccccc21
fluorescence lifetime (in Cc1ccccc1): 5.9 ns

fluorescence lifetime (in C1CCCCC1): 20.6 ns
fluorescence lifetime (in CC#N): 25.8 ns
fluorescence lifetime (in CO): 22.9 ns
fluorescence lifetime (in ClCCl): 22 ns
Compound: COc1c2ccccc2c(OC)c2c1c1ccc(C)cc1n2C

fluorescence lifetime (in CC#N): 1 ns
Compound: C(=C\c1nc(-c2ccccc2)c2ccccn12)/c1nc(-c2ccccc2)c2ccccn12

Compound: COc1cc2[nH]c3c(c2cc1OCC(=O)O)CCCC3=O
fluorescence lifetime (in C1CCOC1): 0.411 ns
fluorescence lifetime (in C1COCCO1): 0.189 ns
fluorescence lifetime (in CC#N): 0.627 ns
fluorescence lifetime (in CCCCCCCCCCCCO): 1.24 ns
fluorescence lifetime (in CCCCCCCCCCO): 1.17 ns
fluorescence lifetime (in CCCCCCCCO): 1.15 ns
fluorescence lifetime (in CCCCCCO): 1.17 ns
fluorescence lifetime (in CCCCO): 1.29 ns
fluorescence lifetime (in CCO): 1.69 ns
fluorescence lifetime (in CCOC(C)=O): 0.279 ns
fluorescence lifetime (in CN(C)C=O): 1.92 ns
fluorescence lifetime (in CO): 1.87 ns
fluorescence lifetime (in CS(C)=O): 2.27 ns
fluorescence lifetime (in Cc1ccccc1): 0.189 ns
fluorescence lifetime (in O): 2.23 ns
fluorescence lifetime (in c1ccccc1): 0.188 ns

fluorescence lifetime (in ClCCl): 3.1 ns
Compound: CCN(CC)c1ccc2cc(C#N)/c(=N\C(=O)C(C)C)oc2c1

Compound: N#Cc1c(-n2c3ccc(Cl)cc3c3cc(Cl)ccc32)c(C#N)c(-n2c3ccc(Cl)cc3c3cc(Cl)ccc32)c(-n2c3ccc(Cl)cc3c3cc(Cl)ccc32)c1-n1c2ccc(Cl)cc2c2cc(Cl)ccc21
fluorescence lifetime (in Cc1ccccc1): 0.4 ns

Compound: CC1(C)c2ccccc2N(c2ccc(-c3nnc(-c4cc(-c5ccccc5)c(-c5ccccc5)c(-c5ccccc5)c4-c4ccccc4)o3)cc2)c2ccccc21
fluorescence lifetime (in c1ccc(-n2c(-c3c(-n4c5ccccc5c5ccccc54)cccc3-n3c4ccccc4c4ccccc43)nc3ccccc32)cc1): 5.5 ns

fluorescence lifetime (in C1CCCCC1): 2.8 ns
fluorescence lifetime (in CC#N): 3.4 ns
fluorescence lifetime (in CCCCCCCCO): 3.69 ns
fluorescence lifetime (in CCCCCCO): 3.68 ns
fluorescence lifetime (in CCCCO): 3.55 ns
fluorescence lifetime (in CCCO): 3.48 ns
fluorescence lifetime (in CCO): 3.15 ns and 2.04 ns and 3.1 ns
fluorescence lifetime (in CCOC(C)=O): 3.1 ns
fluorescence lifetime (in CO): 1.94 ns
fluorescence lifetime (in O): 0.36 ns
fluorescence lifetime (in OCC(O)CO): 3.8 ns
Compound: CCN(CC)c1ccc2c(C)cc(=O)oc2c1
